In PubChem BioAssay (NCI):
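Method: 48-hour compound exposure of cells in 96-well plates, five concentrations, linear interpolation of endpoints. Abbreviation: GI50, concentration required for 50% inhibition of growth. The concentration for full growth arrest is given as TGI.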

Columns and labels:
Assay in all cases: inhibition of tumour cell growth, NCI panel, 48 h
786-0 renal = system: 786-0 renal
HCT-116 colon = system: HCT-116 colon
ACHN renal = system: ACHN renal
U251 CNS = system: U251 CNS
HL-60(TB) leukemia = system: HL-60(TB) leukemia
SF-295 CNS = system: SF-295 CNS
A498 renal = system: A498 renal
SK-MEL-28 melanoma = system: SK-MEL-28 melanoma
OVCAR-8 ovarian = system: OVCAR-8 ovarian
TK-10 renal = system: TK-10 renal

Structure (SMILES): O=c1c(-c2ccc(O)cc2)coc2cc(OC3OC(CO)C(O)C(O)C3O)cc(O)c12 (stereo not given)
- GI50 (786-0 renal): > 10 µM
- TGI (786-0 renal): > 100 µM
- TGI (HCT-116 colon): > 100 µM
- GI50 (ACHN renal): > 10 µM
- TGI (ACHN renal): > 100 µM
- GI50 (U251 CNS): > 100 µM
- TGI (U251 CNS): > 100 µM
- GI50 (HL-60(TB) leukemia): > 100 µM
- TGI (HL-60(TB) leukemia): > 100 µM
- TGI (SF-295 CNS): > 100 µM
- TGI (A498 renal): > 100 µM
- GI50 (SK-MEL-28 melanoma): > 100 µM
- TGI (SK-MEL-28 melanoma): > 100 µM
- TGI (OVCAR-8 ovarian): > 100 µM
- TGI (TK-10 renal): > 100 µM

Structure (SMILES): O=C(Nc1ccc2c(c1)OCO2)C(=O)c1c[nH]c2cc(F)ccc12
- GI50 (786-0 renal): 4.39 µM
- TGI (786-0 renal): 23 µM
- GI50 (HCT-116 colon): 11.2 µM
- TGI (HCT-116 colon): > 100 µM
- GI50 (ACHN renal): 0.547 µM
- TGI (ACHN renal): 20.4 µM
- GI50 (U251 CNS): 9.17 µM
- TGI (U251 CNS): 51.7 µM
- GI50 (HL-60(TB) leukemia): 4.51 µM
- TGI (HL-60(TB) leukemia): > 100 µM
- GI50 (SF-295 CNS): 2.19 µM
- TGI (SF-295 CNS): 21.5 µM
- GI50 (A498 renal): 2.72 µM
- TGI (A498 renal): 16.7 µM
- GI50 (SK-MEL-28 melanoma): 2.05 µM
- TGI (SK-MEL-28 melanoma): 5.54 µM
- GI50 (OVCAR-8 ovarian): 3.89 µM
- TGI (OVCAR-8 ovarian): 23.6 µM
- GI50 (TK-10 renal): 7.04 µM
- TGI (TK-10 renal): 25.4 µM

Structure (SMILES): CCOC(=O)c1cc(-c2ccc(OC)c(OC)c2)[nH]c1N/N=C/c1c(Cl)cccc1Cl
- GI50 (786-0 renal): 2.77 µM
- TGI (786-0 renal): 12.3 µM
- GI50 (HCT-116 colon): 1.39 µM
- TGI (HCT-116 colon): 5.44 µM
- GI50 (ACHN renal): 3.23 µM
- TGI (ACHN renal): 16.2 µM
- GI50 (U251 CNS): 2.15 µM
- TGI (U251 CNS): 18.2 µM
- GI50 (HL-60(TB) leukemia): 1.86 µM
- TGI (HL-60(TB) leukemia): 6.15 µM
- GI50 (SF-295 CNS): 0.461 µM
- TGI (SF-295 CNS): 8.31 µM
- GI50 (A498 renal): 1.03 µM
- TGI (A498 renal): 7.77 µM
- GI50 (SK-MEL-28 melanoma): 1.12 µM
- TGI (SK-MEL-28 melanoma): > 100 µM
- GI50 (OVCAR-8 ovarian): 3.69 µM
- TGI (OVCAR-8 ovarian): > 100 µM
- GI50 (TK-10 renal): 2.5 µM
- TGI (TK-10 renal): 11.4 µM

Structure (SMILES): COC(=O)C1=C(C(=O)OC)C2OC1c1cc3ccccc3cc12
- TGI (786-0 renal): 3.29 µM
- TGI (HCT-116 colon): 4.29 µM
- TGI (ACHN renal): 3.03 µM
- TGI (U251 CNS): 32.7 µM
- TGI (HL-60(TB) leukemia): 2.22 µM
- TGI (SF-295 CNS): 38.3 µM
- TGI (A498 renal): 36.7 µM
- TGI (SK-MEL-28 melanoma): 4.09 µM
- TGI (OVCAR-8 ovarian): 13.6 µM
- TGI (TK-10 renal): 11.3 µM

Structure (SMILES): CC(C)(C)NC/C(=C\c1ccccc1)C(=O)c1ccccc1
- GI50 (786-0 renal): 1.95 µM
- TGI (786-0 renal): 4.01 µM
- GI50 (HCT-116 colon): 1.18 µM
- TGI (HCT-116 colon): 2.58 µM
- GI50 (ACHN renal): 1.45 µM
- TGI (ACHN renal): 3.62 µM
- GI50 (U251 CNS): 2.3 µM
- TGI (U251 CNS): 6.41 µM
- GI50 (HL-60(TB) leukemia): 2.59 µM
- TGI (HL-60(TB) leukemia): 14.1 µM
- GI50 (SF-295 CNS): 2.86 µM
- TGI (SF-295 CNS): 11.4 µM
- GI50 (A498 renal): 1.8 µM
- TGI (A498 renal): 3.64 µM
- GI50 (SK-MEL-28 melanoma): 1.9 µM
- TGI (SK-MEL-28 melanoma): 3.75 µM
- GI50 (OVCAR-8 ovarian): 2.82 µM
- TGI (OVCAR-8 ovarian): 10.1 µM
- GI50 (TK-10 renal): 0.94 µM
- TGI (TK-10 renal): 2.28 µM

Structure (SMILES): C=C1C(=O)OC2CC3(C)CCCC(C)C3=CC12 (stereo not given)
- TGI (786-0 renal): 11.6 µM
- TGI (HCT-116 colon): 15.5 µM
- TGI (ACHN renal): 10.4 µM
- TGI (U251 CNS): 22.2 µM
- TGI (HL-60(TB) leukemia): 2.59 µM
- TGI (SF-295 CNS): 26.3 µM
- TGI (A498 renal): 18.7 µM
- TGI (SK-MEL-28 melanoma): 12.2 µM
- TGI (OVCAR-8 ovarian): 37.3 µM
- TGI (TK-10 renal): 10.1 µM

Structure (SMILES): Cc1cc(C)nc(NS(=O)(=O)c2ccc(NC(=O)c3ccc(Cl)c4c(Nc5ccc(S(=O)(=O)N=C(N)N)cc5)c5ccccc5nc34)cc2)n1
- TGI (786-0 renal): 96.1 µM
- TGI (HCT-116 colon): > 100 µM
- TGI (ACHN renal): > 100 µM
- TGI (U251 CNS): > 100 µM
- TGI (HL-60(TB) leukemia): 25.1 µM
- TGI (SF-295 CNS): > 100 µM
- TGI (A498 renal): > 100 µM
- TGI (SK-MEL-28 melanoma): > 100 µM
- TGI (OVCAR-8 ovarian): > 100 µM
- TGI (TK-10 renal): > 100 µM

Structure (SMILES): COc1cc2ncn(-c3cc(OCc4ccccc4C(F)(F)F)c(C(C)=O)s3)c2cc1OC
- GI50 (786-0 renal): > 25 µM
- TGI (786-0 renal): > 25 µM
- GI50 (HCT-116 colon): > 25 µM
- TGI (HCT-116 colon): > 25 µM
- GI50 (ACHN renal): > 25 µM
- TGI (ACHN renal): > 25 µM
- GI50 (U251 CNS): > 25 µM
- TGI (U251 CNS): > 25 µM
- GI50 (HL-60(TB) leukemia): > 25 µM
- TGI (HL-60(TB) leukemia): > 25 µM
- GI50 (SF-295 CNS): > 25 µM
- TGI (SF-295 CNS): > 25 µM
- GI50 (A498 renal): 4.1 µM
- TGI (A498 renal): 17.2 µM
- GI50 (SK-MEL-28 melanoma): > 25 µM
- TGI (SK-MEL-28 melanoma): > 25 µM
- GI50 (OVCAR-8 ovarian): > 25 µM
- TGI (OVCAR-8 ovarian): > 25 µM
- GI50 (TK-10 renal): > 25 µM
- TGI (TK-10 renal): > 25 µM

Structure (SMILES): CN(O)C(=S)c1ccccc1
- TGI (786-0 renal): 14.3 µM
- TGI (HCT-116 colon): 5.07 µM
- TGI (ACHN renal): 37.7 µM
- TGI (U251 CNS): > 100 µM
- TGI (HL-60(TB) leukemia): 7.04 µM
- TGI (SF-295 CNS): 35.9 µM
- TGI (A498 renal): 68.2 µM
- TGI (SK-MEL-28 melanoma): > 100 µM
- TGI (OVCAR-8 ovarian): 33.2 µM
- TGI (TK-10 renal): > 100 µM

Structure (SMILES): CC(O)CN1c2ccccc2Sc2ccc(Cl)cc21 (stereo not given)
- TGI (786-0 renal): > 10 µM
- TGI (HCT-116 colon): > 10 µM
- TGI (ACHN renal): > 10 µM
- TGI (U251 CNS): > 10 µM
- TGI (HL-60(TB) leukemia): > 10 µM
- TGI (SF-295 CNS): > 10 µM
- TGI (A498 renal): > 10 µM
- TGI (SK-MEL-28 melanoma): > 10 µM
- TGI (OVCAR-8 ovarian): > 10 µM
- TGI (TK-10 renal): > 10 µM

Structure (SMILES): CC(=O)O/N=C(Cl)/C(Cl)=N/OC(C)=O
- TGI (786-0 renal): > 100 µM
- TGI (HCT-116 colon): > 100 µM
- TGI (ACHN renal): > 100 µM
- TGI (U251 CNS): > 100 µM
- TGI (HL-60(TB) leukemia): > 100 µM
- TGI (SF-295 CNS): > 100 µM
- TGI (A498 renal): > 100 µM
- TGI (SK-MEL-28 melanoma): > 100 µM
- TGI (OVCAR-8 ovarian): > 100 µM
- TGI (TK-10 renal): > 100 µM

Structure (SMILES): CN(C)CCNC(=O)c1cccc2ncc(-c3ccccc3)nc12
- TGI (786-0 renal): > 100 µM
- TGI (HCT-116 colon): 22 µM
- TGI (ACHN renal): > 94.3 µM
- TGI (U251 CNS): 41.7 µM
- TGI (HL-60(TB) leukemia): 42.4 µM
- TGI (SF-295 CNS): 58.5 µM
- TGI (A498 renal): 31.4 µM
- TGI (SK-MEL-28 melanoma): 36.1 µM
- TGI (OVCAR-8 ovarian): > 93 µM
- TGI (TK-10 renal): 34.7 µM

Structure (SMILES): NNC(=S)Nc1cccc(Cl)c1
- TGI (786-0 renal): > 100 µM
- TGI (HCT-116 colon): > 100 µM
- TGI (ACHN renal): > 100 µM
- TGI (U251 CNS): > 100 µM
- TGI (HL-60(TB) leukemia): > 100 µM
- TGI (SF-295 CNS): > 100 µM
- TGI (A498 renal): > 100 µM
- TGI (SK-MEL-28 melanoma): > 100 µM
- TGI (OVCAR-8 ovarian): > 100 µM
- TGI (TK-10 renal): > 100 µM

Structure (SMILES): CN(C)CCC1(C2=CCCC2)CC/C(=C\c2ccccc2Cl)C1=O (stereo not given)
- TGI (786-0 renal): 25.7 µM
- TGI (HCT-116 colon): 24.6 µM
- TGI (ACHN renal): 31.1 µM
- TGI (U251 CNS): 25.5 µM
- TGI (HL-60(TB) leukemia): 19.6 µM
- TGI (SF-295 CNS): 27.9 µM
- TGI (A498 renal): 28.4 µM
- TGI (SK-MEL-28 melanoma): 26.2 µM
- TGI (OVCAR-8 ovarian): 29.3 µM
- TGI (TK-10 renal): 33.5 µM

Structure (SMILES): OC1CCC[C@@H]1Sc1ccccc1 (stereo not given in full)
- TGI (786-0 renal): > 100 µM
- TGI (HCT-116 colon): > 100 µM
- TGI (ACHN renal): > 100 µM
- TGI (U251 CNS): > 100 µM
- TGI (HL-60(TB) leukemia): > 100 µM
- TGI (SF-295 CNS): > 100 µM
- TGI (A498 renal): > 100 µM
- TGI (SK-MEL-28 melanoma): > 100 µM
- TGI (OVCAR-8 ovarian): > 100 µM
- TGI (TK-10 renal): > 100 µM

Structure (SMILES): O=C(Cn1c(C(=O)c2ccccc2)nc2ccccc21)c1ccc(F)cc1
- GI50 (786-0 renal): 20.8 µM
- TGI (786-0 renal): > 100 µM
- GI50 (HCT-116 colon): 3.28 µM
- TGI (HCT-116 colon): > 100 µM
- GI50 (ACHN renal): > 59.7 µM
- TGI (ACHN renal): > 100 µM
- GI50 (U251 CNS): 4.11 µM
- TGI (U251 CNS): > 100 µM
- GI50 (HL-60(TB) leukemia): 1.65 µM
- TGI (HL-60(TB) leukemia): 5.9 µM
- GI50 (SF-295 CNS): 9.44 µM
- TGI (SF-295 CNS): > 100 µM
- GI50 (A498 renal): 4.86 µM
- TGI (A498 renal): > 43.7 µM
- GI50 (SK-MEL-28 melanoma): 7.07 µM
- TGI (SK-MEL-28 melanoma): > 100 µM
- GI50 (OVCAR-8 ovarian): 37.4 µM
- TGI (OVCAR-8 ovarian): > 100 µM
- GI50 (TK-10 renal): 14.2 µM
- TGI (TK-10 renal): > 100 µM
